# Source: patent US20070027178A1, “Substituted tetrahydro-1H-pyrido[4,3-b]indoles as serotonin receptors agonists and antagonists” (Bristol-Myers Squibb Company, priority 2005, published 2007)
row,melting point [°C],Structure (SMILES)
1,338 to 342,Cc1cc(C(F)(F)F)c2[nH]c3c(c2c1)CNCC3.Cl
2,140 to 144,"COc1cc(C(F)(F)F)c2[nH]c3c(c2c1)CNCC3 [Example 23, 8-Methoxy-6-(trifluoromethyl)-2,3,4,5-tetrahydro-1H-pyrido [4,3-b]indole]"
